The text below walks through data of the NIST ThermoML archive (doi:10.1021/acs.jced.9b00011).

± gives the expanded uncertainty stated by the source.

For data set [1] the following is noted: Crystal; DSC.
The nature of data set [2]: Molar enthalpy of transition or fusion. The settings on record: Crystal; DSC.

For the compound `COc1cc(Cl)c(OC)cc1N` [4-chloro-2,5-dimethoxyaniline], in data set [1], the Triple point temperature is listed as 389.38 ± 3.7 K. In addition, the “Molar enthalpy of transition or fusion” value in data set [2] is 5.88 ± 0.908 kcal/mol.

As to `COc1ccc(OC)c(N)c1` [2,5-dimethoxyaniline], the Triple point temperature in data set [1] is 352.56 ± 2.3 K. The “Molar enthalpy of transition or fusion” value in data set [2] came to 5.55 ± 1.1 kcal/mol.
